Measured values from PubChem BioAssay AID602211 (Sanford-Burnham Center for Chemical Genomics, 2012).
Active and inactive are the calls of the source.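 Rule for the calls: active = mean IC50 at or below 10 µM; inactive = the rest.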

System: H9c2 cardiomyocytes, H2O2 protection, ATPLite viability, 2 h
Assay: H2O2-induced H9c2 cell death suppression – ATPLite luminescence, set 2, dose response (AID 602211);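 note: potency is for protection so actives keep ATP signal up against peroxide killing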

COc1ccc(C(=O)COC(=O)Cn2[nH]c(=O)c3ccccc3c2=O)c(OC)c1
IC50: 27.2 µM (inactive)

CCCC(=O)Nc1nc2ccc(NC(=O)c3ccc(Br)o3)cc2s1
IC50: 15.2 µM (inactive)

O=C(Nc1ccccc1)c1nc[nH]c1C(=O)NCCCCNC(=O)c1[nH]cnc1C(=O)Nc1ccccc1
IC50: 2.04 µM

COc1ccc(Nc2nnc(SCc3cc(=O)n4ccsc4n3)s2)cc1
IC50: 8.23 µM

COc1cc(NC(=O)c2cccc3c(-c4cnn(C)c4)coc23)cc(OC)c1OC
IC50: 1.56 µM

COc1ccc(/C=C/C(=O)c2ccccc2O)cc1CN1CCOCC1
IC50: 7.14 µM

NC(=O)c1nsc(C(=O)N(c2ccccc2)C(C(=O)NCc2ccc(F)cc2)c2ccc(O)cc2)c1N (stereo not drawn)
IC50: 1.98 µM

COc1cc2nc(Nc3ccc(F)cc3)nc(N)c2cc1OC
IC50: 4.24 µM

Cc1c(/C=N/NC(=O)c2ccc(O)cc2)c2ccccn2c1C(=O)c1ccc(F)cc1
IC50: 5.2 µM

COc1ccc(-c2cc(C(F)(F)F)n3nc(C(=O)N4CCN(C(=O)c5ccco5)CC4)cc3n2)cc1
IC50: 9.56 µM

Cc1nn2c(-c3cccc(NC(=O)c4ccco4)c3)nnc2c2ccccc12
IC50: 1.66 µM

O=C(N/N=C/c1cn(-c2ccccc2)nc1-c1cccnc1)c1ccccc1
IC50: 12.7 µM (inactive)

COc1ccc(-c2csc(NC(=O)CCCc3nc4ccccc4c(=O)[nH]3)n2)cc1OC
IC50: 3.42 µM

COc1ccc2cc3cc(C(=O)NCCc4ccc(OC)c(OC)c4)oc3nc2c1
IC50: 4.28 µM

O=C(CNC(=O)c1nc[nH]c1C(=O)NCc1ccccc1)OCc1ccccc1
IC50: > 79 µM (inactive)

CC(=O)c1ccc(N2CCN(C(=O)C3CCCN(c4ncnc5c4nc4n5CCCCC4)C3)CC2)cc1 (stereo not drawn)
IC50: 2.68 µM

Cc1ncc(CO)c2cc(C(=O)Nc3ccccc3Cl)c(=Nc3cccc(C(N)=O)c3)oc12
IC50: 0.51 µM

Cc1[nH]c2ccccc2c1/C=N/NC(=O)c1cc(-c2cccs2)[nH]n1
IC50: 3.62 µM

COc1cccc(CN(C)C(=O)C(Cc2ccccc2)NC(=O)c2ccccc2)c1OC (stereo not drawn)
IC50: 6.8 µM

Cc1cc(C)c(S(=O)(=O)N2CCN(C(=O)c3cc(=O)[nH]c4ccccc34)CC2)c(C)c1
IC50: 2.94 µM

COc1cc(NC(=O)c2ccc(-c3cn[nH]c3)c3ccoc23)cc(OC)c1OC
IC50: 3.24 µM

COC(=O)c1ccc(C(NC(=O)OCc2ccccc2)/C(C)=C/[C@@H](C)C(=O)NCc2ccc(OC)c(OC)c2)cc1 (stereo partly drawn)
IC50: > 79 µM (inactive)

COc1cccc(-c2nn3c(-c4ccccn4)nnc3s2)c1
IC50: 6.65 µM

COc1ccc(-c2cc(C(=O)NNC(=O)c3csc(N4CCOCC4)n3)c3ccccc3n2)cc1
IC50: 14.1 µM (inactive)

COc1ccc(-c2ccc3c(c2)S(=O)(=O)c2cccc(C(=O)N4CCN(c5c(Cl)cncc5Cl)CC4)c2C3=O)cc1OC
IC50: 4.27 µM

O=C(Nc1ccc2c(c1)OCO2)c1cnn2c(C(F)(F)F)cc(-c3ccco3)nc12
IC50: 2.58 µM

O=C(O)c1ccc2c(c1)S(=O)(=O)c1cc(N3CCN(c4cnccn4)CC3)ccc1C2=O
IC50: > 79 µM (inactive)

Cc1nc2ccccc2c2c(N)c3ccccc3n12
IC50: 14.6 µM (inactive)

N#C/C(=C\Nc1ccc2c(c1)OCCO2)c1nc2ccccc2[nH]1
IC50: 9.06 µM

C=CC[C@@H](CC(=O)NCCO)C(=O)NC[C@H](OC(=O)[C@@H](CC=C)Cc1ccc(F)cc1)c1ccccc1
IC50: 3.38 µM

CCOc1cc(-c2cc(-c3ccc(N)cc3)nc(N)c2C#N)ccc1O
IC50: 5.99 µM

c1ccc(N2CCOCC2)c(Nc2nc3ccccc3n3cnnc23)c1
IC50: 5.28 µM

CC(C)c1ccccc1NC(=O)COC(=O)c1c2c(nc3ccccc13)CCN(Cc1ccccc1)C2
IC50: 5.25 µM

CC(=O)Nc1cccc(NC(=O)c2cc(-c3cccnc3)nc3ccc(Br)cc23)c1
IC50: 1.3 µM

CC(=O)c1cccc(-c2cnc3c(NC=O)cc(-c4ccc(F)cc4)cn23)c1
IC50: 7.76 µM

C[C@@H]1ON(C)[C@H]2C[C@H]3c4[nH]c5ccc(-c6ccc7c(c6)OCO7)cc5c4CCN3C[C@@H]12
IC50: > 79 µM (inactive)

Cc1ccc(C)c(NC(=O)C(Sc2nc3ccccc3c(=O)n2CC(C)C)c2ccccc2)c1 (stereo not drawn)
IC50: 0.35 µM

CCn1nc(C(=O)Nc2nc(-c3ccccn3)cs2)c2ccccc2c1=O
IC50: 3.37 µM

NC(=O)c1ccc(Nc2nnc(-c3ccc(O)cc3)c3ccccc23)cc1
IC50: 14.7 µM (inactive)

O=C(CN1C(=O)C2CC=CCC2C1=O)Nc1nc(-c2ccc(F)cc2)cs1 (stereo not drawn)
IC50: > 79 µM (inactive)

O=C(CN(c1ccc2c(c1)OCCO2)S(=O)(=O)c1ccccc1)Nc1ccc2c(c1)OCO2
IC50: 4.32 µM

CCn1c(O)c(/C=N/N=C2CCCCC2)c2cc(C3=NNC(=O)CC3)ccc21
IC50: 9.96 µM

COc1ccc(N/C=C(\C#N)c2nc3ccccc3n2C)c(OC)c1
IC50: 3.73 µM

COc1ccc(-c2nn(-c3ccccc3)cc2C(=O)Nc2nccs2)cc1
IC50: 8.75 µM

COc1ccc(C=CC(=O)c2ccc3cc(OC)c(OC)cc3c2)cc1OC
IC50: 2.47 µM

COc1cccc(C(=O)CSc2nnc(-c3cc(OC)c(OC)c(OC)c3)o2)c1
IC50: > 79 µM (inactive)

Cc1ccccc1C1c2[nH]c3ccccc3c2C[C@H]2C(=O)N(c3ccccc3C(=O)NCCCN3CCOCC3)C(=O)N12 (stereo partly drawn)
IC50: 17.2 µM (inactive)

CCOc1cccc(Nc2cc3n(c(=O)n2)CCc2cc(OC)c(OC)cc2-3)c1
IC50: 23 µM (inactive)

CCCN1C(=O)c2cc(C(=O)Nc3cccc(C(C)=O)c3)ccc2C1Nc1cccc(C(C)=O)c1 (stereo not drawn)
IC50: > 79 µM (inactive)

COc1ccc(-c2cc(-c3ccc(O)cc3)nc(N)c2C#N)cc1OC
IC50: > 79 µM (inactive)

COC(=O)c1cc(OC)c(OC)cc1NC(=O)c1ccc(C)o1
IC50: 3.98 µM

Cc1c(C(=O)Nc2ccc3nc(N4CCOCC4)sc3c2)oc2ccccc12
IC50: > 79 µM (inactive)

COc1cc(NC(=O)c2ccco2)c(C(=O)OCC(=O)c2c[nH]c3ccccc23)cc1OC
IC50: > 79 µM (inactive)

COc1cc(/C=N/NC(=O)c2ccccc2)ccc1OS(=O)(=O)c1ccccc1
IC50: 6.29 µM

COc1cc(/C=C/c2nc3ccccc3c(=O)n2-c2ccc(O)cc2)ccc1O
IC50: 3.01 µM

COc1ccc2c(c1OC)c(=O)n1c3ccc(OC(C)C(=O)NCCN4CCOCC4)cc3c3ccnc2c31 (stereo not drawn)
IC50: 13.7 µM (inactive)

COc1ccc(-c2cc(C(=O)Nc3ccccc3N3CCOCC3)c3ccccc3n2)cc1OC
IC50: 4.52 µM

COc1ccc(NC(=O)c2cc(-c3ccccn3)nc3ccccc23)cc1S(=O)(=O)N(C)C
IC50: 2.46 µM

CC(C)(C)OC(=O)NCc1ccc(NC(=O)c2nc[nH]c2C(=O)NCCCCCCNC(=O)c2[nH]cnc2C(=O)Nc2ccc(CNC(=O)OC(C)(C)C)cc2)cc1
IC50: > 79 µM (inactive)

COc1ccc(-n2cc(-c3ccccc3)c3c(N4CCOCC4)ncnc32)cc1
IC50: 4.02 µM

COc1cc(-c2cc(C(=O)Nc3ccccc3N3CCOCC3)c3ccccc3n2)cc(OC)c1OC
IC50: 5.8 µM

Brc1cc2c(cc1/C=N/Nc1nc(N3CCCC3)nc(N3CCOCC3)n1)OCO2
IC50: 8.27 µM

C#CCOc1nc(Nc2cccc([N+](=O)[O-])c2)nc(OCC#C)n1
IC50: > 79 µM (inactive)

COc1ccc(NC(=O)c2oc3ccc(S(=O)(=O)N4CCOCC4)cc3c2C)cc1
IC50: 0.815 µM

C[C@H](NC(=O)c1nc[nH]c1C(=O)NCC(=O)OCc1ccccc1)C(=O)OCc1ccccc1
IC50: 26.2 µM (inactive)

Cc1ccc(C)c(C(=O)Nc2cc(C)nn2-c2nc(C)cc(C)n2)c1
IC50: 65.6 µM (inactive)

COc1ccc(OC)c(NC(=O)COC(=O)c2c3c(nc4ccccc24)CCCC3)c1
IC50: 1.15 µM

CCCOc1ccc2[nH]c(C(=O)N/N=C/c3cc(OC)c(OC)c(OC)c3)cc2c1
IC50: 4.04 µM

COc1ccc(-c2nnc(-c3cc(OC)c(OC)c(OC)c3)o2)cc1OC
IC50: 43.9 µM (inactive)

Cc1ccc(S(=O)(=O)N2CCN(C(=O)c3cc(=O)[nH]c4ccccc34)CC2)c(C)c1
IC50: 2.24 µM

C[C@H](CO)N1C[C@H](C)[C@@H](CN(C)S(=O)(=O)c2ccc(F)cc2)Oc2ccc(NC(=O)Nc3ccc4c(c3)OCO4)cc2C1=O
IC50: 10.1 µM (inactive)

Brc1ccc(-c2nn3c(-c4ccccn4)nnc3s2)o1
IC50: 27.4 µM (inactive)

COc1cccc(/C=N/NC(=O)c2nc(-c3ccccc3)cc(-c3ccccc3)n2)c1
IC50: 1.61 µM

CN1CCc2nc3ccccc3c(C(=O)OCC(=O)N(CCC#N)c3ccccc3)c2C1
IC50: 22.7 µM (inactive)

CCOC(=O)C1=C(COC(=O)c2cc(OC)c(OC)c(OC)c2)NC(=O)NC1C (stereo not drawn)
IC50: 5.68 µM

O=C(Nc1cccc(Cl)c1)c1nc[nH]c1C(=O)NCCCNC(=O)c1[nH]cnc1C(=O)Nc1cccc(Cl)c1
IC50: 1.36 µM

O=C(NCc1ccco1)c1cc(-c2cccnc2)nc2ccc(Cl)cc12
IC50: 4.95 µM

COc1ccccc1CN(C)C(=O)c1cc(-c2cc(OC)c(OC)c(OC)c2)nc2ccccc12
IC50: > 79 µM (inactive)

COc1ccc(-c2cc(-c3nnc(COC(=O)c4ccncc4)o3)c3ccccc3n2)cc1OC
IC50: 5.89 µM

COc1cc(/C=c2\s/c(=C(/C#N)C(=O)N3CCCC3)n(-c3ccccc3)c2=O)ccc1O
IC50: 3.2 µM

COc1cc(NC(=O)c2cc3ccccc3cc2OC)ccc1NC(=O)c1cccs1
IC50: 3.59 µM

COc1ccc(-n2c(/C=C/c3ccc(O)cc3)nc3ccccc3c2=O)cc1
IC50: 6.21 µM

O=c1c2ccccc2nc2c3ccccc3c(NCCO)nn12
IC50: 20.3 µM (inactive)

CNC(=O)c1ccc(-c2sc3nc(N4CCOCC4)c4c(c3c2N)CC(C)(C)OC4)o1
IC50: 6.13 µM

S=C(Nc1ccc(N2CCOCC2)cc1)Nc1ccc2nc(-c3ccco3)c(-c3ccco3)nc2c1
IC50: 10.7 µM (inactive)

COc1ccccc1N1CCN(C(=O)c2ccc3nc(-c4ccco4)c(-c4ccco4)nc3c2)CC1
IC50: 7.68 µM

OC1CCN(c2c3c(nc4cc(-c5cccc(F)c5)nn24)CCCC3)CC1
IC50: 6.02 µM

O=CNc1cc(-c2ccc(C(=O)NC3CC3)cc2)cn2c(-c3ccc(F)c(Cl)c3)cnc12
IC50: 5.46 µM

CC(=O)Nc1ccc(S(=O)(=O)N(Cc2ccco2)Cc2cc3ccccc3[nH]c2=O)cc1
IC50: > 79 µM (inactive)

CCOc1ccc(-n2cc(-c3ccccc3)c3c(N4CCOCC4)ncnc32)cc1
IC50: 6.61 µM

COc1ccc2[nH]c(=O)c(CN(CC3CCCO3)S(=O)(=O)c3ccccc3F)cc2c1 (stereo not drawn)
IC50: 4.52 µM

COc1ccc(C(=O)Nc2cc(C)nn2-c2nc3ccccc3[nH]2)c(OC)c1
IC50: 10.9 µM (inactive)

C[C@H](NC(=O)c1nc[nH]c1C(=O)NCC(=O)OCc1ccccc1)c1ccccc1
IC50: 1.6 µM
